The source of these data is ChEMBL document CHEMBL4602673, “Insights into Protein-Ligand Interactions in Integrin Complexes: Advances in Structure Determinations” (J Med Chem, 2020).

The target in assay [1] is T1, Integrin alpha-L/beta-2 (LFA-1) (Homo sapiens, UniProt P05107+P20701). Kind of assay: Binding affinity to human lymphocyte integrin alphaL beta2 (Cys125 to Gly311residues) expressed in Escherichia coli XL-1B cells by isothermal titration calorimetry.
Assay [2] deals with T2, Integrin alpha-V/beta-3 (Homo sapiens, UniProt P05106+P06756). Kind of assay: Inhibition of human integrin alphavbeta3 expressed in HEK293 cells assessed as reduction in cell adhesion to fibrinogen preincubated for 20 mins followed by phosphatase substrate addition and measured after 1 hr by spectrophotometry. It is filed as cell-based.
T2 sequence (P05106 27-788 limits assumed): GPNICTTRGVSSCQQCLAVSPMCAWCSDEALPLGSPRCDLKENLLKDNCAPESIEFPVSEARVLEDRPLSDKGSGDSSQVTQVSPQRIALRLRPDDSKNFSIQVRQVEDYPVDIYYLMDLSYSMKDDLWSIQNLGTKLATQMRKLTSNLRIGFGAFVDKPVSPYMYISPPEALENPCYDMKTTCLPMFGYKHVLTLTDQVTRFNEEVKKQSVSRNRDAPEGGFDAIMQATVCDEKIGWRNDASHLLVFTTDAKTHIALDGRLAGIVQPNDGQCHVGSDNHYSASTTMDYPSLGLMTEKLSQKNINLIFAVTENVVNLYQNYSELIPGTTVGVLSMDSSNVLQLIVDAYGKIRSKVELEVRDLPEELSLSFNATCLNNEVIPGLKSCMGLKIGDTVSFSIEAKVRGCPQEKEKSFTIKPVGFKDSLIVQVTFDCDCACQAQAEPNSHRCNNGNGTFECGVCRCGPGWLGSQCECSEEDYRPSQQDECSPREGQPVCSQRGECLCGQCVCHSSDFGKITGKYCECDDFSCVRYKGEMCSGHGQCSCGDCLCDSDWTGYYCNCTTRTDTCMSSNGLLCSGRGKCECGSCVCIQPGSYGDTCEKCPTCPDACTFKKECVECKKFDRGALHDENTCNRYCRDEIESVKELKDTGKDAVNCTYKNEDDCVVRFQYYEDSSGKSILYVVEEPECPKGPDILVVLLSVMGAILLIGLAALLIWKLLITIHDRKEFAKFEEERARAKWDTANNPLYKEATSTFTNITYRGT
T2 sequence (P06756 31-889 limits assumed): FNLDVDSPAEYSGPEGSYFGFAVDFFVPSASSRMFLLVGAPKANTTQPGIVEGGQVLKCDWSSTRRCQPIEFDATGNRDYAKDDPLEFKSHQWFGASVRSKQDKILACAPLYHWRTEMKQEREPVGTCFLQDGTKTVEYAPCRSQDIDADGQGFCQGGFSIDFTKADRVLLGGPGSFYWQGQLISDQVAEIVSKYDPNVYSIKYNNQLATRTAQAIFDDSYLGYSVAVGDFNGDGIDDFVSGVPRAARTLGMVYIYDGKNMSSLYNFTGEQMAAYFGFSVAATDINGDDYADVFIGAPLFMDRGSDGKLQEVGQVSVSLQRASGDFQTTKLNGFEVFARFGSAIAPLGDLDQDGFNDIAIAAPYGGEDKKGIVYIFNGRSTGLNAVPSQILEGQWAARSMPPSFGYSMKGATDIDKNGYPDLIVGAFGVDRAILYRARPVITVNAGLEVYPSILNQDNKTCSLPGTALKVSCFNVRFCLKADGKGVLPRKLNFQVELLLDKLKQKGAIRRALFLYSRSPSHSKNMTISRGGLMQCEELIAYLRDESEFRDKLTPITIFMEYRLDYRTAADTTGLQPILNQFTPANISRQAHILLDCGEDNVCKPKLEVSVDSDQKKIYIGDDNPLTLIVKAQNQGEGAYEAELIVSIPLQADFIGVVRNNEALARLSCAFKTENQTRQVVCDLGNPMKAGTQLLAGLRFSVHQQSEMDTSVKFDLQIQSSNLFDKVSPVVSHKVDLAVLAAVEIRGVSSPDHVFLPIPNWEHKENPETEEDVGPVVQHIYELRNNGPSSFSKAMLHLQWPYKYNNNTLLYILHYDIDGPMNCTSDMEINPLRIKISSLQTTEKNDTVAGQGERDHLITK
T2 sequence (P06756 891-1048 limits assumed): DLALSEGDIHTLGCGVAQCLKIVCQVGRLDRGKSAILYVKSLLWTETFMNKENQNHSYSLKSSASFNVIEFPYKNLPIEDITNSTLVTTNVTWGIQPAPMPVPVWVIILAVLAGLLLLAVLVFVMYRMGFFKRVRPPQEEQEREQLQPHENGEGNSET
Another assay deals with Integrin alpha-4/beta-1 (Homo sapiens, UniProt P05556+P13612). Kind of assay: Binding affinity to human integrin alpha4beta1 incubated for 6 hrs by radioligand binding assay. It counts as protein-complex assay.
Another assay concerns the target Integrin alpha2/beta1 (Homo sapiens, UniProt P05556+P17301). Kind of assay: Inhibition of human alpha2 beta1 expressed in CHO cells assessed as reduction in cell adhesion to collagen type 1 incubated for 5 mins by DiOC6 dye based fluorescence microscopy.
For assay [3], the target named is T1, Integrin alpha-L/beta-2 (LFA-1). Kind of assay: Inhibition of human integrin alphaL beta2 assessed as reduction in integrin alphaL beta2/ICAM1 protein-protein interaction by ELISA. It counts as protein-complex assay. (In an ELISA, binding on a coated surface is turned into a signal by an enzyme label.)
The target of assay [4] is Integrin alpha-IIb/beta-3 (Homo sapiens, UniProt P05106+P08514). The assay can be described thus: Inhibition of FITC-dodecapeptide binding to human integrin alpha2b beta3 receptor stably expressed in CHO Lec.3.2.8.1 cells by fluorescence anisotropy. It counts as cell-based. In general terms: Polarisation of emitted light reports the rotation of a fluorescent probe.
Sequence of Integrin alpha-IIb/beta-3 (P05106 27-788 limits assumed): as the sequence (P05106 27-788 limits assumed) above
Sequence of Integrin alpha-IIb/beta-3 (P08514 32-887 limits assumed): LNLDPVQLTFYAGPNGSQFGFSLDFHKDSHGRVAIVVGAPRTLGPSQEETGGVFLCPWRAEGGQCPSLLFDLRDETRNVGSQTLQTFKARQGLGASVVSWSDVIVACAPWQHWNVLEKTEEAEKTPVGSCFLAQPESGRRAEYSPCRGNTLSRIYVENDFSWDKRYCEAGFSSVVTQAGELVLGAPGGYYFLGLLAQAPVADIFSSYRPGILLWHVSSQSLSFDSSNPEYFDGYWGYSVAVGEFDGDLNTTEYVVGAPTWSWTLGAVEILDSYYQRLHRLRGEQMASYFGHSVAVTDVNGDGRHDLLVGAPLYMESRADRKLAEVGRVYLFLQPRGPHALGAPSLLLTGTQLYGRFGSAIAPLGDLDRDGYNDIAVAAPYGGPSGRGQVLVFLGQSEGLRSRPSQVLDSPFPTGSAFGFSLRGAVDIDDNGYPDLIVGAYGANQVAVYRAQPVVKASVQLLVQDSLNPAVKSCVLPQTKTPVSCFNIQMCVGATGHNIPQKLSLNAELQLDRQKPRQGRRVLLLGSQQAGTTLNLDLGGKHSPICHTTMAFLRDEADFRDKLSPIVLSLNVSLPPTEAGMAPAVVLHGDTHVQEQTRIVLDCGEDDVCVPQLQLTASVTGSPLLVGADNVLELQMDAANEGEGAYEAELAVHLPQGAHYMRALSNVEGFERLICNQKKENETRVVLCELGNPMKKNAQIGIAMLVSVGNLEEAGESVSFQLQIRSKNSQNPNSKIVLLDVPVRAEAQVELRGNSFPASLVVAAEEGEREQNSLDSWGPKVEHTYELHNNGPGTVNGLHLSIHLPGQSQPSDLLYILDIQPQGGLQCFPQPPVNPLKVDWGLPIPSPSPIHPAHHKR
Sequence of Integrin alpha-IIb/beta-3 (P08514 891-1039 limits assumed): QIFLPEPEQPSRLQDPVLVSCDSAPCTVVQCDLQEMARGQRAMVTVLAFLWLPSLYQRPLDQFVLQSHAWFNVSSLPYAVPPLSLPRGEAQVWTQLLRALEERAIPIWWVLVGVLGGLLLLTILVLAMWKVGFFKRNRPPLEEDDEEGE
In the next assay the target is Integrin alpha-V/beta-1 (Homo sapiens, UniProt P05556+P06756). Kind of assay: Displacement of [3H] C8 from human integrin alphavbeta1 incubated for 6 hrs by competition binding assay. It is filed as protein-complex assay. In general terms: In a radioligand displacement assay an active substance lowers the binding of a labelled ligand.
The target in assay [5] is T2, Integrin alpha-V/beta-3. Kind of assay: Inhibition of human integrin alphavbeta3 (unknown origin). It is filed as protein-complex assay.

pEC50, pIC50, pKd, pKi: −log10 of the molar value. Bridge positions count the residues as written; N and C are the ends. Square brackets hold non-standard residues; d marks the D form. Peptide text beside a SMILES is read from it. hArg = N=C(N)NCCCC[C@H](N)C(=O)O; Mpa = O=C(O)CCS

T1 sequence (P20701 whole entry): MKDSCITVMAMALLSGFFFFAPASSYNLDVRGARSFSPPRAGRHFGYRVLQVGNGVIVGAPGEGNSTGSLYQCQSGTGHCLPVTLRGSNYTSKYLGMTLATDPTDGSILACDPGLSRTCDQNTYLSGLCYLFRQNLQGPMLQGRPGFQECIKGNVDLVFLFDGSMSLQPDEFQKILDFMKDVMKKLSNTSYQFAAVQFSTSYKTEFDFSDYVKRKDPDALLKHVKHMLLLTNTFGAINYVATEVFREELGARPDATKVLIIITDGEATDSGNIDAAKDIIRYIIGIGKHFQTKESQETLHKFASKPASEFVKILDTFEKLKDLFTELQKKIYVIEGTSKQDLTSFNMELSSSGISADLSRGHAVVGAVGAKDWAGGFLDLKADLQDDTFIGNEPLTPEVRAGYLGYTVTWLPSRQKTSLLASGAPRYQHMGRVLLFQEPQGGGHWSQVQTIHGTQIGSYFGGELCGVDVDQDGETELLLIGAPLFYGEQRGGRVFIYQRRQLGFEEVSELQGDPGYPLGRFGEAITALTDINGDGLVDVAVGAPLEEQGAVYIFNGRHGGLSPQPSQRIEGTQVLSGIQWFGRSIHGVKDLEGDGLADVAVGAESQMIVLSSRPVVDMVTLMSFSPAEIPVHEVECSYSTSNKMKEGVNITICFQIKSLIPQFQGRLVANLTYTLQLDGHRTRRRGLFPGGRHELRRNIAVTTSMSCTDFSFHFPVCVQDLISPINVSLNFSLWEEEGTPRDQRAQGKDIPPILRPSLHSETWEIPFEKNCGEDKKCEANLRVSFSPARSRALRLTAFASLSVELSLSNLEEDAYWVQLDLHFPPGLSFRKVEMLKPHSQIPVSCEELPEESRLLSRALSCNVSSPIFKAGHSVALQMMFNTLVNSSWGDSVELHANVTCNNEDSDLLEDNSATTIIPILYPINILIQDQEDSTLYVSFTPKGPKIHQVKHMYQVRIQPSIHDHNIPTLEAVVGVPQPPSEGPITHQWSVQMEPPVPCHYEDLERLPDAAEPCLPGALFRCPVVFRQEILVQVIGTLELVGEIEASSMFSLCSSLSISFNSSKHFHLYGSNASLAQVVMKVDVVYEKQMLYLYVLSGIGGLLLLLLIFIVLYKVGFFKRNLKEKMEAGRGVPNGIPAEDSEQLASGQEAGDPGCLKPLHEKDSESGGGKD
T1 sequence (P05107 whole entry): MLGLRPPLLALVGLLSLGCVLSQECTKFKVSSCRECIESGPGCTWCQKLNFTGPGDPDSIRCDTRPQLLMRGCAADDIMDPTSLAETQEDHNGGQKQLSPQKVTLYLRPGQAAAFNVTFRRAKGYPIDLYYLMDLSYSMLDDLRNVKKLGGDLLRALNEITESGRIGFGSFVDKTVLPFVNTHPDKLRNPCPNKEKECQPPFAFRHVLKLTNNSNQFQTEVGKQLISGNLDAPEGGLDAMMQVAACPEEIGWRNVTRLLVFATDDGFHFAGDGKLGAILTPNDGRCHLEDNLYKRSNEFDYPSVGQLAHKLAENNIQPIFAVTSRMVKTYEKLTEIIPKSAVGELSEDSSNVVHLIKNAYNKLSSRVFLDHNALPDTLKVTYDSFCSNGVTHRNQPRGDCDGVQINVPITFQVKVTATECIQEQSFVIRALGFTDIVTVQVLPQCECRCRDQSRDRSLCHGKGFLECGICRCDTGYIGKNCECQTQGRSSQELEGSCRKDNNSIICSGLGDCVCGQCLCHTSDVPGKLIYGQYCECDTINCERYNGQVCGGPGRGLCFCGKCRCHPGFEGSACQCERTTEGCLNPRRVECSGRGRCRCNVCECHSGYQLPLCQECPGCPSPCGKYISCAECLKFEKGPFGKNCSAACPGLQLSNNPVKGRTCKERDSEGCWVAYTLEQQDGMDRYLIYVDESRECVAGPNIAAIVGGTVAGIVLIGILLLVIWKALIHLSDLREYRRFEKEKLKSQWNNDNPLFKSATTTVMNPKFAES

In general, pKd refers to −log10 of the Kd, conventionally taken in molar units. In assay [1], `CCOc1ccccc1Sc1ccc(-c2ccnc(N3CCN(C(C)=O)CC3)c2)cc1[N+](=O)[O-]` gave a pKd of 7.74.
For orientation: pIC50 means the negative decadic logarithm of the IC50, by convention in mol/L. Consider `COc1ccc([C@H](CC(=O)O)N2CCN(CCCc3ccc4c(n3)NCCC4)C2=O)cn1`, for which the pIC50 on Integrin alpha-V/beta-3 [2] is 8.52.
As to `N=C(N)NCCCCC(=O)Nc1ccc(C[C@H](NC(=O)[C@@H]2CCCN2S(=O)(=O)c2ccccc2)C(=O)O)cc1`, the pKd on Integrin alpha-4/beta-1 was 9.10.
A word on the pEC50: it is −log10 of the EC50, conventionally taken in molar units. On to `CN(c1ccc(NC(=O)Nc2ccccc2)cc1)S(=O)(=O)c1cnn(-c2ccc(F)cc2)c1`, for which the pEC50 at Integrin alpha2/beta1 is 6.89.
In the case of `CC[C@H](C)C(=O)OC1C[C@@H](C)C=C2C=C[C@H](C)[C@H](CC[C@@H]3C[C@H](CC(=O)NC)N(Cc4ccc(O)c(OC)c4)C(=O)O3)[C@H]21` (some centres not stated), the pIC50 in assay [3] is 7.30.
As for `N=C(N)c1ccc(C(=O)NCCC(=O)N[C@@H](CC(=O)O)C(=O)NC(Cc2ccccc2)C(=O)O)cc1` (some centres not stated), in assay [4], the pIC50 was 9.22.
As to `O=C(CCCCc1ccc2c(n1)NCCC2)NCC[C@H](NC(=O)c1nc2ccccc2s1)C(=O)O`, the pIC50 on Integrin alpha-V/beta-3 [2] was 7.60.
As for `CC[C@H](C)C(=O)O[C@H]1C[C@@H](C)C=C2C=C[C@H](C)[C@H](CCC3C[C@@H](O)CC(=O)N3Cc3ccc4c(CO)c(OC)ccc4c3)[C@H]21` (some centres not stated), in assay [3], the pIC50 was 6.70.
In the case of `CN(c1ccc(NC(=O)Nc2ccccc2)cc1)S(=O)(=O)c1ccc(-c2ccnn2C)s1`, on Integrin alpha2/beta1, the pEC50 is 6.80.
One may read the pKi as −log10 of the Ki, conventionally taken in molar units. For `CCNC(=O)Nc1cnnc(-c2ccc(C[C@H](NC(=O)c3c(Cl)cccc3Cl)C(=O)O)cc2)c1`, the pKi on Integrin alpha-V/beta-1 is 9.78.
As for `O=C(NC[C@H](NS(=O)(=O)c1cccnc1)C(=O)O)c1cc2cc(CCC3CCNCC3)sc2s1`, on Integrin alpha-V/beta-3 [5], the pIC50 was 7.72 to 8.10.
In turn, `N=C(N)NCCCC[C@@H]1NC(=O)CCSSC[C@@H](C(N)=O)NC(=O)[C@@H]2CCCN2C(=O)[C@H](Cc2c[nH]c3ccccc23)NC(=O)[C@H](CC(=O)O)NC(=O)CNC1=O` [EPTIFIBATIDE] ([Mpa][hArg]GDWPC-NH2; disulfide 1-7) had a pKd at Integrin alpha-V/beta-3 [5] of 6.92.
